The target in this assay is High affinity nerve growth factor receptor (Homo sapiens, UniProt P04629). The assay is described as follows: Biological Assay: TrkA functional activity was measured using a DiscoverX PathHunter assay. In this assay, U2OS cells express the human TrkA receptor as a fusion with the weakly complementing fragment of B-galactosidase, which DiscoverX calls Prolink (PK); additionally, Shc1 is fused with a larger fragment, which is called Enzyme Acceptor (EA). Activation of the TrkA receptor, upon NGF addition, results in the kinase domain being phosphorylated, resulting in subsequent recruitment of Shc1-EA protein. That recruitment results in an active B-galactosidase enzyme that is detected by addition of a chemiluminescent substrate. The human p75NTR protein was also expressed as a co-receptor for NGF.
Chain of High affinity nerve growth factor receptor (P04629 whole entry, the tested form may be a part): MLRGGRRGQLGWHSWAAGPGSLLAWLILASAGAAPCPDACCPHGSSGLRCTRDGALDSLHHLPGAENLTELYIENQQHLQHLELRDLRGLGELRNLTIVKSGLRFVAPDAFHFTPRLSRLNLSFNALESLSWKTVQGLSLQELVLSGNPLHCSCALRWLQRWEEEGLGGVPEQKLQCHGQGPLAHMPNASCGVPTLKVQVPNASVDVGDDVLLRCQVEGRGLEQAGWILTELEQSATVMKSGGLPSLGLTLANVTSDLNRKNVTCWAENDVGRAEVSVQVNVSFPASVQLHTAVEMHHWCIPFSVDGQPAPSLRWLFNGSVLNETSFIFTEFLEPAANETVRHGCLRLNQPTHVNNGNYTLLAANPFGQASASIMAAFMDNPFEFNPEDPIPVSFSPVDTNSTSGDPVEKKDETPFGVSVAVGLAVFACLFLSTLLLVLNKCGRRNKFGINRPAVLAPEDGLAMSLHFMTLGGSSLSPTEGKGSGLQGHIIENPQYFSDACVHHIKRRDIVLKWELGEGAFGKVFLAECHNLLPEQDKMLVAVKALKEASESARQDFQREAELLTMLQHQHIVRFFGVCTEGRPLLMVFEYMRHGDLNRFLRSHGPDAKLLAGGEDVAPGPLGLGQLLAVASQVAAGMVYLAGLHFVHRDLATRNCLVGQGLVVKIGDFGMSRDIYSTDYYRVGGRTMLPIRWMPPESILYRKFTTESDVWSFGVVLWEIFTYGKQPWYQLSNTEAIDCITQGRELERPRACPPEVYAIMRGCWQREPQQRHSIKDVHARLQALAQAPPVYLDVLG

Consider `Cn1ccc(-c2cc(C(=O)Nc3c(-c4ccccc4)ccc4c(C(C)(C)O)ncn34)c(F)cc2C(F)(F)F)n1`, for which half-maximal inhibition (IC50) was put at 50 nM.
